Data published in patent publication US20230134869A1, “CRYSTAL FORM OF FREE ALKALI OF NITROGEN-CONTAINING AROMATIC DERIVATIVES” (Shanghai Hansoh Biomedical Co., Ltd., priority 2020, published 2023).
In brackets after ≈: the same amount, converted by molar mass.

What was measured:
[1] = Solubility experiment in different media (crystal form B of the Example 53 compound); format: physicochemical; conditions: thermodynamic from solid, 37° C.
Method: The solubility of crystal form B of (S)-1′-(6-amino-5-((2-amino-3-chloropyridin-4-yl)thio)-3-fluoropyrazin-2-yl)-1,3-dihydrospiro[indene-2,4′-piperidin]-1-amine in media such as water, Simulated Gastric Fluid (SGF), Fasted State Simulated Intestinal Fluid (FaSSIF) and Fed State Simulated Intestinal Fluid (FeSSIF) was compared, so as to provide a basis for evaluating the druggability.
About 2 mg of crystal form B of (S)-1′-(6-amino-5-((2-amino-3-chloropyridin-4-yl)thio)-3-fluoropyrazin-2-yl)-1,3-dihydrospiro[indene-2,4′-piperidin]-1-amine was suspended in different media for 24 hours, respectively.

[2] = Hygroscopicity experiment (crystal form A of the Example 35 compound); format: physicochemical
[3] = Pharmacokinetics study in rats of crystal form A of the Example 35 compound, single oral administration; format: in vivo; conditions: SD rats, intragastric, 10 mg/kg
[4] = Solid stability experiment: high temperature, high humidity (crystal form A of the Example 35 compound); format: physicochemical; conditions: 60° C.; room temperature/92.5% RH; 50° C. and 75% RH; 5, 10, 20 and 30 days
Method: (§1) The content was determined by HPLC using the external standard method. The related substance change was calculated by chromatographic peak area normalization method.

[5] = Determination of stable crystal form by comparing DSC spectrums (Example 35 compound); format: physicochemical
Description: The objective is to find stable crystal forms of the compound (S)-8-(6-amino-5-((2-amino-3-chloropyridin-4-yl)thio)pyrazin-2-yl)-2-cyclopropyl-8-azaspiro[4.5]dec-2-en-1-amine by polymorphic screening.
Three crystal forms of (S)-8-(6-amino-5-((2-amino-3-chloropyridin-4-yl)thio)pyrazin-2-yl)-2-cyclopropyl-8-azaspiro[4.5]dec-2-en-1-amine, i.e., crystal forms A, B and C, were obtained by pulping, changing crystallization solvent and crystallization method.

[6] = Solubility experiment in different media (crystal form A of the Example 35 compound); format: physicochemical; conditions: 37° C., 2 hours, buffers pH 1 to 8, water, FaSGF, FaSSIF, FeSSIF
[7] = Crystal transformation investigation: pressure (tabletting) and grinding; format: physicochemical; conditions: compressed into tablets; ground 15 minutes
Description: The tablets were mashed to powder and characterized by XRPD.

[8] = Pharmacokinetics assay in mice; format: in vivo; conditions: Balb/c mice
Method: (§2) Balb/c mice were used as test animals.
(§3) The solution was subjected to ultrasound to obtain a clear solution. […] The concentration was 0.2 mg/mL.
After an overnight fast, male Balb/c mice were administered intravenously with the test compounds at an administration dose of 1 mg/kg and an administration volume of 5 mL/kg.
Blood was taken before administration and at 0 minute, 5 minutes, 15 minutes, 0.5 hour, 1.0 hour, 2.0 hours, 4.0 hours, 8.0 hours and 24.0 hours after administration. The blood samples were stored in EDTA-2K tubes, and centrifuged for 6 minutes at 6000 rpm, at 4° C. to separate the blood plasma. The plasma samples were stored at −80° C. The mice were fed 4 hours after administration.

[9] = Pharmacokinetics assay in rats; format: in vivo; conditions: SD rats
Method: SD rats were used as test animals.
as §3
After an overnight fast, male SD rats (3 rats per group) were administered intravenously with the test compounds at an administration dose of 1 mg/kg and an administration volume of 5 mL/kg.
0.2 mL of blood was taken from jugular vein before administration and at 0 minute, 5 minutes, 15 minutes, 0.5 hour, 1.0 hour, 2.0 hours, 4.0 hours, 8.0 hours and 24.0 hours after administration. The blood samples were stored in EDTA-2K tubes, and centrifuged for 6 minutes at 6000 rpm, at 4° C. to separate the blood plasma. The plasma samples were stored at −80° C.

[10] = Tolerance assay in mice (body weight, abnormal responses); format: in vivo, Balb/c mice; conditions: oral 10 mg/kg QD
Method: as §2
5 g of hydroxyethyl cellulose (HEC, CMC-Na, viscosity: 800-1200 Cps) was dissolved in 1000 mL of purified water, and 10 g of Tween 80 was added. The solution was mixed well to form a clear solution.
The solution was subjected to ultrasound for 10 minutes to obtain a colorless and clear solution with a concentration of 1 mg/mL.
After an overnight fast, Balb/c mice (3 male and 3 female) were administrated orally with the test compound at an administration dose of 10 mg/kg and an administration volume of 10 mL/kg.
The mice were weighed daily before and after administration, and abnormal responses were observed. The mice were fed 4 hours after administration.

[11] = Solid stability experiment under light (amorphous form, crystal forms A and B of the Example 53 compound); format: physicochemical
Method: as §1

[12] = Polymorphic screening and determination of stable crystal form (Example 53 compound), DSC comparison; format: physicochemical
Description: The objective is to find stable crystal forms of (S)-1′-(6-amino-5-((2-amino-3-chloropyridin-4-yl)thio)-3-fluoropyrazin-2-yl)-1,3-dihydrospiro[indene-2,4′-piperidin]-1-amine by polymorphic screening.
Organic solvents and water with a certain solubility was chosen to suspend (S)-1′-(6-amino-5-((2-amino-3-chloropyridin-4-yl)thio)-3-fluoropyrazin-2-yl)-1,3-dihydrospiro[indene-2,4′-piperidin]-1-amine in the solvent system, and the mixture was stirred and slurried at room temperature for one week, and then centrifuged. The supernatant was discarded, and the solid was dried under vacuum (−0.1 Mpa) at 40° C. overnight. The XRPD, DSC and TGA of the solid was determined and compared.
Five crystal forms of (S)-1′-(6-amino-5-((2-amino-3-chloropyridin-4-yl)thio)-3-fluoropyrazin-2-yl)-1,3-dihydrospiro[indene-2,4′-piperidin]-1-amine, i.e., crystal forms A, B, C, D and E, were obtained by pulping, changing crystallization solvent and crystallization method.

[13] = Hygroscopicity experiment (crystal form B of the Example 53 compound); format: physicochemical
Description: The hygroscopicity of crystal form B of the compound (S)-1′-(6-amino-5-((2-amino-3-chloropyridin-4-yl)thio)-3-fluoropyrazin-2-yl)-1,3-dihydrospiro[indene-2,4′-piperidin]-1-amine under different relative humidity conditions was investigated, so as to provide a basis for the crystal form screening and storage of the compound.
Crystal form B of (S)-1′-(6-amino-5-((2-amino-3-chloropyridin-4-yl)thio)-3-fluoropyrazin-2-yl)-1,3-dihydrospiro[indene-2,4′-piperidin]-1-amine was placed in saturated water vapor with different relative humidity to achieve dynamic equilibrium between the compound and water vapor, and the percentage of hygroscopic weight gain of the compound after the equilibrium was calculated.

[14] = Light 5000 ± 500 lux (sealed), Day 0
[15] = Light 5000 ± 500 lux (sealed), Day 5
[16] = Light 5000 ± 500 lux (sealed), Day 10

Nc1nc(N2CCC3(CC2)Cc2ccccc2[C@H]3N)c(F)nc1Sc1ccnc(N)c1Cl [(S)-1′-(6-amino-5-((2-amino-3-chloropyridin-4-yl)thio)-3-fluoropyrazin-2-yl)-1,3-dihydrospiro[indene-2,4′-piperidin]-1-amine]
solubility thermodynamic at 24 h ([1]; simulated gastric fluid, SGF): 2050 µg/mL (≈ 4340 µM)
solubility thermodynamic at 24 h ([1]; Fa (Fasted State Simulated Intestinal Fluid, FaSSIF)): 170 µg/mL (≈ 360 µM)
solubility thermodynamic at 24 h ([1]; Fe (Fed State Simulated Intestinal Fluid, FeSSIF)): 64 µg/mL (≈ 136 µM)
solubility thermodynamic at 24 h ([1]; water): 1 µg/mL (≈ 2.12 µM)

Nc1nc(N2CCC3(CC=C(C4CC4)[C@H]3N)CC2)cnc1Sc1ccnc(N)c1Cl [(S)-8-(6-amino-5-((2-amino-3-chloropyridin-4-yl)thio)pyrazin-2-yl)-2-cyclopropyl-8-azaspiro[4.5]dec-2-en-1-amine]
Crystal form (XRPD) after one cycle of humidification and dehumidification ([2]; 0 to 95% relative humidity): the crystal form didn't transform
Hygroscopic weight gain ([2]; RH 80%): about 0.544%
Hygroscopicity ([2]; RH 80%): slight hygroscopicity
Metabolic property (pharmacokinetics experiment in rats) [3]: good metabolic property
Impurity increase [4]: less than 0.15%
Thermodynamic stability by comparing DSC spectrums of crystal forms A, B and C [5]: better thermodynamic stability
Solubility compared in different media [6]: better solubility under acidic conditions
Crystal transformation after tabletting and grinding (XRPD) [7]: didn't undergo crystal transformation

Nc1nc(N2CCC3(CC2)Cc2ccccc2[C@H]3N)c(F)nc1Sc1ccnc(N)c1Cl [Example 53, (S)-1′-(6-amino-5-((2-amino-3-chloropyridin-4-yl)thio)-3-fluoropyrazin-2-yl)-1,3-dihydrospiro[indene-2,4′-piperidin]-1-amine]
F [8]: 71%
F [9]: 118%
Body weight (Mean), Day 1 ([10]; female Balb/c mice): 22.07 g
Body weight (Mean), Day 16 ([10]; female Balb/c mice): 25.09 g
Body weight changes ΔW/W1 (Mean), Day 16 ([10]; female Balb/c mice): 13.80%
Body weight (Mean), Day 1 ([10]; male Balb/c mice): 23.01 g
Body weight (Mean), Day 16 ([10]; male Balb/c mice): 28.30 g
Body weight changes ΔW/W1 (Mean), Day 16 ([10]; male Balb/c mice): 23.25%

Nc1nc(N2CCC3(CC2)Cc2ccccc2[C@H]3N)c(F)nc1Sc1ccnc(N)c1Cl [amorphous form of (S)-1′-(6-amino-5-((2-amino-3-chloropyridi] [(S)-1′-(6-amino-5-((2-amino-3-chloropyridin-4-yl)thio)-3-fluoropyrazin-2-yl)-1,3-dihydrospiro[indene-2,4′-piperidin]-1-amine]
10-day total impurities gain ([11]; light 5000 lx±500 lx, 10 days): 19.34%

Nc1nc(N2CCC3(CC2)Cc2ccccc2[C@H]3N)c(F)nc1Sc1ccnc(N)c1Cl [crystal form B of (S)-1′-(6-amino-5-((2-amino-3-chloropyridi] [(S)-1′-(6-amino-5-((2-amino-3-chloropyridin-4-yl)thio)-3-fluoropyrazin-2-yl)-1,3-dihydrospiro[indene-2,4′-piperidin]-1-amine]
Thermodynamic stability by comparing DSC spectrums of crystal forms A, B, C, D and E [12]: best thermodynamic stability among the five crystal forms
Crystal form (XRPD) after one cycle of humidification and dehumidification ([13]; 0 to 95% relative humidity): the crystal form didn't transform
Hygroscopic weight gain ([13]; RH 80%): about 1.639%
Hygroscopicity ([13]; RH 80%): slight hygroscopicity
Content (HPLC) Day 0 [11, 14]: 98.34%
Total impurities [11, 14]: 1.66%
Content (HPLC) Day 5 [11, 15]: 97.28%
Total impurities [11, 15]: 2.72%
Total impurities gain ([11]; Light 5000 ± 500 lux (sealed), Day 5 vs Day 0): 1.06%
Content (HPLC) Day 10 [11, 16]: 96.46%
Total impurities [11, 16]: 3.54%
Total impurities gain ([11]; Light 5000 ± 500 lux (sealed), Day 10 vs Day 0): 1.88%
